What was measured:
Format in all cases: functional
Rattus norvegicus [1] = species on record: Rattus norvegicus; experiment: Vasorelaxing activity expressed as maximum smooth muscle relaxation at 1*10e-4 M
Rattus norvegicus [2] = species on record: Rattus norvegicus; experiment: Tested in vitro on K+ -depolarized rat aorta strips to evaluate its ability to relax the initial contraction induced by K
Rattus norvegicus [3] = species on record: Rattus norvegicus; experiment: Vasorelaxing activity expressed as maximum smooth muscle relaxation at 1*10e-5 M

Compound | IC50 (Rattus norvegicus [2]) | Max relaxation (Rattus norvegicus [1]) | Max relaxation (Rattus norvegicus [3])
Cc1ccccc1-c1cc(-c2ccccc2O)nc(O)c1C#N | 1000 nM | 89.17% | 
N#Cc1c(-c2ccccc2Cl)cc(-c2ccccc2O)nc1O | 30 nM | 79.78% | 
COc1ccc(-c2cc(-c3ccccc3O)nc(O)c2C#N)c(OC)c1 | 380 nM | 40% | 
N#Cc1c(-c2ccccc2Br)cc(-c2ccccc2O)nc1O | 17000 nM | 35.29% | 
N#Cc1c(-c2cccc([N+](=O)[O-])c2)cc(-c2ccccc2O)nc1O | 500 nM | 64% | 
COc1ccc([C@@H]2Sc3ccccc3N(CCN(C)C)C(=O)[C@@H]2OC(C)=O)cc1 [DILTIAZEM] | 48 nM | 97.86% | 

Now those with a lower IC50 (Rattus norvegicus [2]), led by results:

IC50 (Rattus norvegicus [2]) | Compound | Max relaxation (Rattus norvegicus [1]) | Max relaxation (Rattus norvegicus [3])
1.1 nM | COc1ccc(OC)c(-c2cc(-c3ccccc3O)nc(O)c2C#N)c1 |  | 95.51%
0.95 nM | N#Cc1c(-c2ccccc2)cc(-c2ccccc2O)[nH]c1=O | 23.86% | 
12 nM | COc1ccccc1-c1cc(-c2ccccc2O)nc(O)c1C#N | 99.54% | 

Source: ChEMBL document CHEMBL1133282, “Synthesis and preliminary biological evaluation of 4,6-disubstituted 3-cyanopyridin-2(1H)-ones, a new class of calcium entry blockers” (Bioorg Med Chem Lett, 2000)
